Patent US7368432B2 (Xenome, Ltd., priority 1999, dated 2008)

What was measured:
[1] = test system: mice; details: mouse, in vivo
[2] = in vivo
[3] = test system: mice; details: mouse, in vivo; remark: listed apart in the source
[4] = test system: CF-1 mice; details: in vivo

With NGVCCGYKLCHOC [Mar1] the “symptoms after high-dose i.c.v. administration” value [1] was “akinesia and seizures”, the “symptoms after i.c.v. injection of HPLC fractions” value [1] was “hypokinetic “sluggish” symptoms” and the “activity in formalin test (licking time)” value [2] was “active”. The “activity in tail-flick model” value [3] was “active”, the effective dose range [3] was “low nanomole range” and the “response latency in the tail flick model” value [3] was “reduced the response latency”. For the same sequence, the “analgesic activity in mouse hot plate assay” value [4] was “potent analgesics”, the “increase in the latency to first hind paw lick” value ([4]; mouse) was “dose-dependent” and the “latency to first hind paw lick” value ([4]; mouse) was 39.5 ± 13.5 s. The “latency to lick the hind paw” value ([4]; mouse) was “significantly increased”.
